According to patent US10544090B2, “Anthraquinone analogs and methods of making and using thereof” (Georgia State University Research Foundation, Inc., priority 2012, dated 2020):
Where two headings read alike, the source gives them in different places.

Columns and labels:
Hek = assay: MTT cytotoxicity assay, Hek (Table 2); assay type: cell-based; conditions: for IC50: read-out: IC50 (μM) against Hek
Procedure: (§1) The in vitro cytotoxicity studies of the synthesized compounds were performed in three different cell lines (HeLa, Hek, and KB). The activities of the herein described analogues were compared to that of rhein itself and doxorubicin. Due to the poor solubility of the compounds, all of the solutions used for biological testing were prepared using DMSO as solvent.

HeLa [1] = assay: MTT cytotoxicity assay, HeLa (Table 2); conditions: for IC50 / IC50 (μM) against HeLa: Table 2; for cytotoxicity against HeLa cells compared to rhein: in words
Procedure: as §1

KB = assay: MTT cytotoxicity assay, KB (Table 2); assay type: cell-based; conditions: 48 h incubation; for IC50: read-out: IC50 (μM) against KB
Procedure: as §1

HeLa [2] = assay: MTT cytotoxicity evaluation of series 1 and 2 rhein analogues, HeLa (Tables 3, 4); assay type: cell-based; conditions: for potency in HeLa cells compared with rhein: in words
MOLT4 = assay: MTT cytotoxicity evaluation of series 1 and 2 rhein analogues, MOLT4 (Tables 3, 4); conditions: for cytotoxicity against MOLT4 compared with rhein: in words
[3] = read-out: IC50 (μM) against HeLa, MTT, 48 h incubation
[4] = Homo sapiens, HeLa, MTT, Tables 3 and 4, read-out: IC50 (μM) against HeLa
[5] = Homo sapiens, MOLT-4, read-out: IC50 (μM) against MOLT4
[6] = MTT, Tables 3 and 4, read-out: IC50 (μM) against HeLa
[7] = read-out: IC50 (μM) against MOLT4, MTT, Tables 3 and 4

In the case of `COc1cccc2c1C(=O)c1c(OC)cc(NC(=O)CI)cc1C2=O` [Compound 14, 1,8-dimethoxy-3-(2′-iodo-acetamido)-anthraquinone], the “IC50 (μM) against Hek” value (Hek; 48 h incubation) is reported as “low micro molar”, the IC50 (Hek; Homo sapiens, HEK293, 48 h incubation) is reported as 1.4 µM and the IC50 (HeLa [1]; Homo sapiens, HeLa, 48 h, read-out: IC50 (μM) against HeLa, MTT, 48 h incubation) is reported as 2.5 µM. The “IC50 (μM) against HeLa” value (HeLa [1]; MTT, 48 h incubation) was “low micro molar”, the “cytotoxicity against HeLa cells compared to rhein” value (HeLa [1]) was “significant improvement” and the “IC50 (μM) against KB” value (KB) was “low micro molar”. For the same compound, the IC50 (KB; Homo sapiens, KB, 48 h) was 10 µM.

In the case of `O=C(CCl)NCCCCNC(=O)c1cc(O)c2c(c1)C(=O)c1cccc(O)c1C2=O` [Compound 17, 1,8-Dihydroxy-3-(9′-chloro-aceta-2′,7′diamido)-anthraquinone], the IC50 (Hek; 48 h incubation) is reported as 8 µM, the IC50 (HeLa [1]; [3]) is reported as 16 µM and the IC50 (KB) is reported as 19 µM.

With `O=C(CBr)NCCCCNC(=O)c1cc(O)c2c(c1)C(=O)c1cccc(O)c1C2=O` [Compound 18, 1,8-Dihydroxy-3-(9′-bromo-aceta-2′,7′diamido)-anthraquinone] the “IC50 (μM) against Hek” value (Hek; 48 h incubation) was “low micro molar”, the IC50 (Hek; 48 h incubation) was 1.4 µM and the “IC50 (μM) against HeLa” value (HeLa [1]; MTT, 48 h incubation) was “low micro molar”. The “cytotoxicity against HeLa cells compared to rhein” value (HeLa [1]) was “significant improvement”, the IC50 (HeLa [1]; [3]) was 3 µM and the “IC50 (μM) against KB” value (KB) was “low micro molar”. It also gave an IC50 (KB) of 4.8 µM.

With `O=C(CCl)NCCCOCCOCCOCCCNC(=O)c1cc(O)c2c(c1)C(=O)c1cccc(O)c1C2=O` [Compound 21, 1,8-Dihydroxy-3-(18′-chloro-aceta-6′,9′,12′-trioxa-2′,16′-tridecanediamido)-anthraquinone] the IC50 (Hek; 48 h incubation) was 8 µM, the IC50 (HeLa [1]; [3]) was 14 µM and the IC50 (KB) was 21 µM.

Compound `O=C(CBr)NCCCOCCOCCOCCCNC(=O)c1cc(O)c2c(c1)C(=O)c1cccc(O)c1C2=O` [Compound 22, 1,8-Dihydroxy-3-(18′-bromo-aceta-6′,9′,12′-trioxa-2′,16′-tridecanediamido)-anthraquinone] has an IC50 (Hek; 48 h incubation) of 2.2 µM, an IC50 (HeLa [1]; [3]) of 7 µM and an IC50 (KB) of 9 µM.

With `O=C(CI)NCCCOCCOCCOCCCNC(=O)c1cc(O)c2c(c1)C(=O)c1cccc(O)c1C2=O` [Compound 23, 1,8-Dihydroxy-3-(18′-iodo-aceta-6′,9′,12′-trioxa-2′,16′-tridecanediamido)-anthraquinone] the IC50 (Hek; 48 h incubation) was 4 µM, the IC50 (HeLa [1]; [3]) was 5.8 µM and the IC50 (KB) was 8 µM.

With `O=C1c2cccc(O)c2C(=O)c2c(O)cc(Sc3ccccc3)cc21` [Compound 24a, 1,8-Dihydroxy-3-(phenylthio)-anthraquinone] the “potency increase compared with rhein, HeLa” value (HeLa [2]) was “at least 30 fold”, the IC50 (HeLa [2]; [4]) was 3.4 µM and the “IC50 (μM) against HeLa” value (HeLa [2]; MTT, Tables 3 and 4) was “single digit μM level”. For the same compound, the “potency increase compared with rhein, MOLT4” value (MOLT4) was “at least 30 fold”, the IC50 (MOLT4; [5]) was 1.4 µM and the “IC50 (μM) against MOLT4” value (MOLT4; MTT, Tables 3 and 4) was “single digit μM level”.

`Cc1noc(C)c1-c1cc(O)c2c(c1)C(=O)c1cccc(O)c1C2=O` [Compound 26a, 1,8-Dihydroxy-3-(3′,5′-dimethyl-isoxazol-4′-yl)-anthraquinone] was tested, and the IC50 (HeLa [2]; [6]) was 16 µM, the “potency in HeLa cells compared with rhein” value (HeLa [2]) was “moderate improvement in potency” and the IC50 (MOLT4; [7]) was 14 µM.

For `O=C1c2cccc(O)c2C(=O)c2c(O)cc(-c3cccs3)cc21` [Compound 26b, 1,8-Dihydroxy-3-(thiophen-2′-yl)-anthraquinone], the IC50 (HeLa [2]; [6]) was greater than 100 µM, the “cytotoxicity against MOLT4 compared with rhein” value (MOLT4) was “decreased cytotoxicity” and the IC50 (MOLT4; [7]) was greater than 100 µM.

In the case of `Cc1cc(-c2cc(O)c3c(c2)C(=O)c2cccc(O)c2C3=O)ccc1N(C)C` [Compound 26c, 1,8-Dihydroxy-3-(4′-dimethylamino-3′-methylphenyl)-anthraquinone], the IC50 (HeLa [2]; [4]) is reported as 68 µM, the “potency in HeLa cells compared with rhein” value (HeLa [2]) is reported as “moderate improvement in potency” and the IC50 (MOLT4; [5]) is reported as greater than 100 µM. For the same compound, the “cytotoxicity against MOLT4 compared with rhein” value (MOLT4) was “decreased cytotoxicity”.

Compound `O=C1c2cccc(O)c2C(=O)c2c(O)cc(-c3ccc(Sc4ccccc4)nc3)cc21` [Compound 26d, 1,8-Dihydroxy-3-(6′-phenylthio-pyridin-3′-yl)-anthraquinone] has an IC50 (HeLa [2]; [6]) greater than 100 µM and an IC50 (MOLT4; [7]) of 35 µM.

In the case of `CC(C)(C)OCc1ccc(-c2cc(O)c3c(c2)C(=O)c2cccc(O)c2C3=O)cc1` [Compound 26e, 1,8-Dihydroxy-3-(4′-t-butoxymethyl-phenyl)-anthraquinone], the IC50 (HeLa [2]; [4]) is reported as greater than 100 µM and the IC50 (MOLT4; [5]) is reported as 22 µM.

`COc1ccc(-c2cc(O)c3c(c2)C(=O)c2cccc(O)c2C3=O)cc1` [Compound 26f, 1,8-Dihydroxy-3-(4′-methoxyphenyl)-anthraquinone] gave an IC50 (HeLa [2]; [4]) greater than 100 µM, an IC50 (HeLa [2]; Homo sapiens, HeLa, less than 50% cells killed at highest concentration, R^2 < 0.8, read-out: IC50 (μM) against HeLa, value inside parenthesis calculated by Prism 4 using sigmoidal curve fitting) of 20 µM and an IC50 (MOLT4; [5]) of 29 µM.

For `O=C1c2cccc(O)c2C(=O)c2c(O)cc(-c3ccc(O)cc3)cc21` [Compound 26g, 1,8-Dihydroxy-3-(4′-hydroxyphenyl)-anthraquinone], the IC50 (HeLa [2]; [4]) was 9.9 µM, the “potency in HeLa cells compared with rhein” value (HeLa [2]) was “moderate improvement in potency” and the IC50 (MOLT4; [5]) was 21 µM.
